Test results: patent US8883745B2, “C—glycolipids with enhanced Th-1 profile” (New York University, priority 2006, dated 2014)

Columns and labels:
Format in all cases: in vivo
[1] = tested on: IL-12; experiment: IL-12 levels in sera upon i.v. glycolipid administration to BALB/c mice (ELISA); parameters: IL-12 levels, test 1 / IL-12 levels, test 2 / IL-12 levels, average / IL-12 levels, Total: unit not given here
In short: (§1)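 Cytokine concentrations come from absorbance at 450 nm compared with known standards in a capture/biotinylated-detection ELISA with avidin-HRP and TMB. Sera, diluted 1:10, are drawn at several times up to 72 h after a single 1 μg i.v. glycolipid dose.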

[2] = tested on: IL-12; experiment: IL-12 levels in sera upon i.v. glycolipid administration to C57BL/6 mice (ELISA); parameters: IL-12 levels, test 1 / IL-12 levels, test 2 / IL-12 levels, average / IL-12 levels, Total: unit not given here
In short: as §1

[3] = tested on: IFN-γ; experiment: IFN-γ levels in sera upon i.v. glycolipid administration to C57BL/6 mice (ELISA); parameters: IFN-γ levels, test 1 / IFN-γ levels, test 2 / IFN-γ levels, average / IFN-γ levels, Total / IFN-γ (B6): unit not given here
In short: as §1

[4] = tested on: IFN-γ; experiment: IFN-γ levels in sera upon i.v. glycolipid administration to BALB/c mice (ELISA); parameters: IFN-γ levels, test 1 / IFN-γ levels, test 2 / IFN-γ levels, average / IFN-γ levels, Total: unit not given here; conditions: BALB/c
In short: as §1

[5] = ratio calculated from Tables 1-6
[6] = C57BL/6, ratio calculated from Tables 1-6
[7] = C57BL/6, serum, total over hours 0-72

CCCCCCCCCCCCCCCCCCCCCCCCCC(=O)N[C@@H](CC[C@H]1O[C@H](CO)[C@H](O)[C@H](O)[C@H]1O)[C@H](O)[C@H](O)CCCCCCCCCCCCCC [CRONY, reference compound]
IL-12/IL-4 (BALB/c) [1, 5]: 7
IL-12 levels, average ([1]; serum, hour 0): 5
IL-12 levels, test 1 ([1]; serum, hour 0): 5
IL-12 levels, test 2 ([1]; serum, hour 0): 5
IL-12 levels, average ([1]; serum, hour 2): 66
IL-12 levels, test 1 ([1]; serum, hour 2): 7
IL-12 levels, test 2 ([1]; serum, hour 2): 125
IL-12 levels, average ([1]; serum, hour 6): 1525
IL-12 levels, test 1 ([1]; serum, hour 6): 1556
IL-12 levels, test 2 ([1]; serum, hour 6): 1494
IL-12 levels, average ([1]; serum, hour 12): 1888.5
IL-12 levels, test 1 ([1]; serum, hour 12): 1717
IL-12 levels, test 2 ([1]; serum, hour 12): 2060
IL-12 levels, average ([1]; serum, hour 24): 210
IL-12 levels, test 1 ([1]; serum, hour 24): 338
IL-12 levels, test 2 ([1]; serum, hour 24): 82
IL-12 levels, average ([1]; serum, hour 48): 238
IL-12 levels, test 1 ([1]; serum, hour 48): 328
IL-12 levels, test 2 ([1]; serum, hour 48): 148
IL-12 levels, average ([1]; serum, hour 72): 91.5
IL-12 levels, test 1 ([1]; serum, hour 72): 9
IL-12 levels, test 2 ([1]; serum, hour 72): 174
IL-12 levels, Total ([1]; serum, total over hours 0-72): 4025
IL-12/IL-4 (B6) [2, 6]: 2
IL-12 levels, average ([2]; C57BL/6, serum, hour 0): 5
IL-12 levels, test 1 ([2]; C57BL/6, serum, hour 0): 5
IL-12 levels, test 2 ([2]; C57BL/6, serum, hour 0): 5
IL-12 levels, average ([2]; C57BL/6, serum, hour 2): 107
IL-12 levels, test 1 ([2]; C57BL/6, serum, hour 2): 0
IL-12 levels, test 2 ([2]; C57BL/6, serum, hour 2): 214
IL-12 levels, average ([2]; C57BL/6, serum, hour 6): 472.5
IL-12 levels, test 1 ([2]; C57BL/6, serum, hour 6): 560
IL-12 levels, test 2 ([2]; C57BL/6, serum, hour 6): 385
IL-12 levels, average ([2]; C57BL/6, serum, hour 12): 675.5
IL-12 levels, test 1 ([2]; C57BL/6, serum, hour 12): 630
IL-12 levels, test 2 ([2]; C57BL/6, serum, hour 12): 721
IL-12 levels, average ([2]; C57BL/6, serum, hour 24): 117.5
IL-12 levels, test 1 ([2]; C57BL/6, serum, hour 24): 235
IL-12 levels, test 2 ([2]; C57BL/6, serum, hour 24): 0
IL-12 levels, average ([2]; C57BL/6, serum, hour 48): 0
IL-12 levels, test 1 ([2]; C57BL/6, serum, hour 48): 0
IL-12 levels, test 2 ([2]; C57BL/6, serum, hour 48): 0
IL-12 levels, average ([2]; C57BL/6, serum, hour 72): 0
IL-12 levels, test 1 ([2]; C57BL/6, serum, hour 72): 0
IL-12 levels, test 2 ([2]; C57BL/6, serum, hour 72): 0
IL-12 levels, Total [2, 7]: 1379
IFN-γ/IL-4 (B6) [3, 6]: 17
IFN-γ levels, average ([3]; C57BL/6, serum, hour 0): 31
IFN-γ levels, test 1 ([3]; C57BL/6, serum, hour 0): 31
IFN-γ levels, test 2 ([3]; C57BL/6, serum, hour 0): 31
IFN-γ levels, average ([3]; C57BL/6, serum, hour 2): 355.5
IFN-γ levels, test 1 ([3]; C57BL/6, serum, hour 2): 359
IFN-γ levels, test 2 ([3]; C57BL/6, serum, hour 2): 352
IFN-γ levels, average ([3]; C57BL/6, serum, hour 6): 1094.5
IFN-γ levels, test 1 ([3]; C57BL/6, serum, hour 6): 1083
IFN-γ levels, test 2 ([3]; C57BL/6, serum, hour 6): 1106
IFN-γ levels, average ([3]; C57BL/6, serum, hour 12): 2512.5
IFN-γ levels, test 1 ([3]; C57BL/6, serum, hour 12): 2667
IFN-γ levels, test 2 ([3]; C57BL/6, serum, hour 12): 2358
IFN-γ levels, average ([3]; C57BL/6, serum, hour 24): 6589.5
IFN-γ levels, test 1 ([3]; C57BL/6, serum, hour 24): 6511
IFN-γ levels, test 2 ([3]; C57BL/6, serum, hour 24): 6668
IFN-γ levels, average ([3]; C57BL/6, serum, hour 48): 777.5
IFN-γ levels, test 1 ([3]; C57BL/6, serum, hour 48): 798
IFN-γ levels, test 2 ([3]; C57BL/6, serum, hour 48): 757
IFN-γ levels, average ([3]; C57BL/6, serum, hour 72): 290
IFN-γ levels, test 1 ([3]; C57BL/6, serum, hour 72): 279
IFN-γ levels, test 2 ([3]; C57BL/6, serum, hour 72): 301
IFN-γ levels, Total [3, 7]: 11653
IFN-γ (B6) ([3]; C57BL/6, total from Table 2): 11652
IFN-γ/IL-4 (BALB/c) [4, 5]: 34
IFN-γ levels, average ([4]; serum, hour 0): 27
IFN-γ levels, test 1 ([4]; serum, hour 0): 27
IFN-γ levels, test 2 ([4]; serum, hour 0): 27
IFN-γ levels, average ([4]; serum, hour 2): 150
IFN-γ levels, test 1 ([4]; serum, hour 2): 122
IFN-γ levels, test 2 ([4]; serum, hour 2): 178
IFN-γ levels, average ([4]; serum, hour 6): 3075.5
IFN-γ levels, test 1 ([4]; serum, hour 6): 3114
IFN-γ levels, test 2 ([4]; serum, hour 6): 3037
IFN-γ levels, average ([4]; serum, hour 12): 5611
IFN-γ levels, test 1 ([4]; serum, hour 12): 6314
IFN-γ levels, test 2 ([4]; serum, hour 12): 4908
IFN-γ levels, average ([4]; serum, hour 24): 10680
IFN-γ levels, test 1 ([4]; serum, hour 24): 11900
IFN-γ levels, test 2 ([4]; serum, hour 24): 9460
IFN-γ levels, average ([4]; serum, hour 48): 334
IFN-γ levels, test 1 ([4]; serum, hour 48): 320
IFN-γ levels, test 2 ([4]; serum, hour 48): 348
IFN-γ levels, average ([4]; serum, hour 72): 59.5
IFN-γ levels, test 1 ([4]; serum, hour 72): 50
IFN-γ levels, test 2 ([4]; serum, hour 72): 69
IFN-γ levels, Total ([4]; serum, total over hours 0-72): 19938
